Reference: article PMC5104425, “A Novel Selective Inhibitor of Delta-5 Desaturase Lowers Insulin Resistance and Reduces Body Weight in Diet-Induced Obese C57BL/6J Mice” (PLoS ONE, 2016)

Tests used:
[1] = tested on: D5D; assay: Blood fatty acids (PD markers AA, DGLA, EPA, DHA) after 6-week treatment in DIO mice; type: in vivo, C57BL/6J mice; settings: compound-326 0.1, 1, 10 mg/kg, 6 weeks
Procedure: Fatty acids were extracted from blood and tissues by adding hexane-isopropanol-butylated hydroxytoluene (60:40:0.01, v/v/w). Samples were vortexed for 30 min. The hexane phase was removed and evaporated to dryness under nitrogen stream and vacuum. Dried samples were dissolved in methanol and analyzed by HPLC.
Mice were fed a high-fat diet (HFD) that has 60% kcal from fat and contains 0.09% (w/w) AA (D12492; Research diets, Inc., see S1 Table for fatty acid profile) from 5 weeks of age, and they were divided into 5 groups (7 animals per group) at 11 weeks of age based on BW and daily food intake. In this experiment, 30 mg/kg sibutramine, a […], was used as a positive control for anti-obesity effects. Mice were orally administered compound-326 at doses of 0.1, 1, and 10 mg/kg, sibutramine at a dose of 30 mg/kg, or vehicle for 6 weeks. After 6 weeks, blood concentrations of DGLA and AA under non-fasting condition were evaluated as pharmacodynamics (PD) markers, and oral glucose tolerance test (OGTT) was performed.

[2] = target: T1, human D5D (Homo sapiens, UniProt O60427); assay: In vitro cell-based assay for desaturase activity (HepG2), D5D
T1 construct: endogenous in cells; host or cells: HepG2
Procedure: HepG2 cells were seeded in 96-well cell culture plates at 100 000 cells/well and incubated overnight in DMEM supplemented with 10% fetal bovine serum, 100 U/mL penicillin, and 100 μg/mL streptomycin in 5% CO2 at 37°C. The cells were washed twice with 200 μL of PBS and incubated with the test compounds in DMEM with 0.1% fatty acid free BSA for 30 min. Then, 0.1 μCi/well of [^14C]-labeled DGLA, linoleic acid, and stearic acid (ARC, St. Louis, MO) were added for each desaturase assay. After incubation for 3 h at 37°C, the cells were washed 3 times with 200 μL of PBS to remove [^14C]-labeled substrates in the medium and 0.63 N of NaOH was added to saponify fatty acids. Radioactive substrates and products were extracted, separated, and analyzed using the method as described above.

[3] = tested on: fat tissues of DIO mice; assay: RT-qPCR gene expression in epididymal and subcutaneous fat of DIO mice after 6-week treatment; type: in vivo, C57BL/6J mice; settings: 10 mg/kg, 6 weeks
Procedure: Mice fed a HFD that has 41% kcal from fat and contains no AA (D12079B; Research diets, Inc.) from 5 weeks of age were divided into 2 groups at the age of 8 weeks (8 animals per group), and were administered 10 mg/kg compound-326 or vehicle for 6 weeks. After the treatment period, mice were sacrificed and epididymal and subcutaneous fats were harvested for mRNA analysis. Nine animals maintained on a standard chow (CE2, CLEA Japan, Osaka) were used as control.
Total RNA was extracted and purified using RNeasy Mini Kit (QIAGEN, USA). First-strand cDNA was synthesized using High Capacity cDNA Reverse Transcription Kits (Thermo Fisher, USA). The mRNA levels were quantified by an ABI Prism 7900 TaqMan PCR system (Thermo Fisher, USA) according to the manufacturer’s instruction using TaqMan® Universal PCR Mastermix with the primer-probe sets of TaqMan Gene Expression Assays (Thermo Fisher, USA) for the following genes: Ccl2 (chemokine (C-C motif) ligand 2; Mm99999056_m1), Cd68 (CD68 antigen; Mm03047343_m1), Adgre1 (adhesion G protein-coupled receptor E1; Mm00802529_m1), Tnf (tumor necrosis factor; Mm00443258_m1), Il6 (interleukin 6; Mm99999064), Lep (leptin; Mm00434759_m1), Adipoq (adiponectin; Mm00456425_m1), Fads2 ([…]; Mm00517221_m1), Fads1 ([…]; Mm00507605_m1), Ucp1 (uncoupling protein 1; Mm00494069_m1), Elovl3 (elongation of very long chain fatty acids 3; Mm00468164_m1), Cidea (cell death-inducing DNA fragmentation factor, alpha subunit-like effector A; Mm00432554_m1), Otop1 (otopetrin 1; Mm00554705_m1), and Rplp0 (ribosomal protein, large, P0; forward; 5'-[…]-3', reverse; 5'-[…]-3', probe (VIC-5'→3'-TAMRA); 5'-[…]-3'). The Rplp0 mRNA level was used as a reference and relative transcript levels were calculated with the comparative Ct method (2^-ΔΔCT) (Applied Bio-systems).

[4] = tested on: DIO mice; assay: Indirect calorimetry test (energy expenditure, RER) in established DIO mice; type: in vivo, C57BL/6J mice; settings: 10 mg/kg
Procedure: To evaluate the effect on daily EE, DIO mice fed a HFD that has 41% kcal from fat and contains no AA (D12079B; Research diets, Inc., see S1 Table for fatty acids composition) for 50 weeks were used. At 55 weeks of age, DIO mice were divided into two weight-matched groups (7 animals per group) and treated with vehicle or 10 mg/kg compound-326 for 11 weeks. […] Indirect calorimetry test was performed on day1, 8, 15, 21, and 56 during the study. Daily EE was analyzed using ANCOVA with body mass as covariate. After the treatment period, mice were sacrificed and fat tissues were harvested to evaluate the weights.
Energy metabolism was evaluated using an Oxymax indirect calorimetry system (Columbus Instruments, Columbus, OH). Mice were individually housed in the chamber with a 12-h light/dark cycle. VO2 and VCO2 rates were determined with the following Oxymax system settings: air flow, 0.6 L/min; sample flow, 0.5 l/min; settling time, 10 min; and measuring time, 1 min. The system was calibrated against a standard gas mixture to measure O2 consumed (VO2, mL/kg/h) and CO2 generated (VCO2, mL/kg/h). Metabolic rate (VO2) and respiratory exchange ratio (RER; ratio of VCO2/VO2) were evaluated over a 24-h period. Energy expenditure was calculated as the product of the calorific value of oxygen (3.815+1.232×RER) and the volume of O2 consumed.

T1 sequence (O60427 whole entry): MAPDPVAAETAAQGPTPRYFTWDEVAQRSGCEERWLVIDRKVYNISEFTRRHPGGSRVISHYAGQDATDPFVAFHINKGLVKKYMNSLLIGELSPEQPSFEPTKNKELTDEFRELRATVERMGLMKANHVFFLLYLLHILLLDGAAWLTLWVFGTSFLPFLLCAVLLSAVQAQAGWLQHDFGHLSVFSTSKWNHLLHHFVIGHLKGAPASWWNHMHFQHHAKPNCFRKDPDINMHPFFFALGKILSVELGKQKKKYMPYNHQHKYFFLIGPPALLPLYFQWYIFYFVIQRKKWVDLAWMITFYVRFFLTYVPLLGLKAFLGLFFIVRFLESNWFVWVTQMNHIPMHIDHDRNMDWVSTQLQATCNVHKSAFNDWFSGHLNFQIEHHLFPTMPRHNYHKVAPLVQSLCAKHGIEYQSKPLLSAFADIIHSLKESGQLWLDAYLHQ

SMILES: O=C1Cc2c(nc(OCC(F)(F)C(F)(F)F)n(-c3ccc(OCC(F)(F)F)cc3)c2=O)N1 [Compound-326, 2-(2,2,3,3,3-Pentafluoropropoxy)-3-[4-(2,2,2-trifluoroethoxy)phenyl]-5,7-dihydro-3H-pyrrolo[2,3-d]pyrimidine-4,6-dione]
- blood AA to DGLA ratio [1]: decreased significantly
- blood level of DHA ([1]; dose dependent): decreased
- blood level of EPA ([1]; dose dependent): decreased
- blood AA ([1]; dose-dependent, non-fasting): decreased
- blood DGLA ([1]; dose-dependent, non-fasting): increased
- IC50 [2]: 22 nM
- D5D mRNA expression in epididymal fat [3]: upregulated
- D6D mRNA expression in epididymal fat [3]: upregulated
- beige fat cell-selective genes, including Ucp1, Cidea, Elovl3, and Otop1, in subcutaneous fat [3]: no induction
- epididymal Lep mRNA [3]: decreased
- epididymal Adipoq mRNA ([3]; did not reach statistical difference (p = 0.08)): decreased
- Lep mRNA in subcutaneous fat ([3]; did not reach statistical significance (p = 0.08)): decrease
- Adgre1 expression in epididymal fat ([3]; not significant): decreased
- Cd68 expression in epididymal fat ([3]; not significant): decreased
- Ccl2 expression in epididymal fat ([3]; significant effect): decreased
- daily EE relative to body mass ([4]; day 15, independent of decreased BW): increased
- daily EE (kcal/day) plotted against body mass ([4]; days 1 and 8, vs vehicle): no difference
- difference in daily EE lines vs vehicle ([4]; days 21 and 56): became more apparent
- RER ([4]; relative to vehicle through the study, did not reach significance): lower
